# Laboratory results reported in US9388215B2, “Compositions and methods of using islet neogenesis peptides and analogs thereof” (SHENZHEN HIGHTIDE BIOPHARMACEUTICAL, LTD., priority 2013, dated 2016).
# How the values were obtained:
# [1] = assay type: physicochemical; conditions: pH 7.4
# Method: Peptide stability in buffers was tested for INGAP-PP and selected analogs. 10 mg/mL of Peptide 1, Peptide 12, Peptide 16, Peptide 29 or Peptide 31 was dissolved in isotonic buffers with pH ranging from 4.0 to 8.0. […] Peptide 12 and Peptide 29 were stable in an isotonic phosphate buffer (pH 7.4) for more than 90 days at 4° C. (there was no sign of degradation at 90 days sample check point), and 60 days at 25° C.
# [2] = Pharmacokinetics in SD rats after single subcutaneous dose (Example X); assay type: in vivo, rat; conditions: plasma, sc, male Sprague-Dawley rat, subcutaneous, 25 mg/kg
# Method: After 7 days acclimation, a total of 15 male Sprague-Dawley (SD) rats (body weight: 230 to 270 g) in good health from Sino-British SIPPR/BK Lab Animal Ltd, Shanghai, were used in the study. All peptides, Peptide 1, Peptide 12, Peptide 16, Peptide 29 or Peptide 31, were dissolved in sterile normal saline respectively to yield the desired final concentrations and were administered via single subcutaneous (sc) dose.
# Three animals in each group were used for blood collection at the time point of 5 min, 15 min, 30 min, 1 h, 2 h, 4 h, 6 h, 8 h and 24 h post-dose. Blood samples (approximately 400 μL) were collected and placed into tubes containing EDTA-K2 (dipotassium ethylene diamine tetraacetic acid) and centrifuged at 8000 rpm for 6 minutes at 4° C. to separate plasma from the samples. The resulting plasma was stored frozen at −80° C. until being analyzed.
# Plasma concentrations of peptides were determined using tandem mass spectrometry (LC-MS/MS) analysis. A non-compartmental module of WinNonlin® Professional 5.2 (Pharsight; St. Louis Mo.) was used to calculate PK parameters. AUC(0-t) represents area under the curve from the time of dosing to the time of the last observation, the AUC(0-∞) represents area under the curve from the time of dosing to infinity, and the Cmax represents maximum concentration detected.
# [3] = Peptide stability in rat plasma; assay type: in vitro ADME; conditions: 100 μg/mL, 37° C.; FIG. 12, 13
# Method: (§1) The stability of peptides was also tested in rat, mouse and human plasma. Briefly, a certain amount of peptides and eucatropine powder (positive control) was accurately weighed. Test compounds were dissolved in 50% methanol-water solution and diluted to 20 mg/mL, and eucatropine was dissolved in dimethylsulfoxide (DMSO) and diluted to 10 mM, as a stock solution. Eucatropine stock solution was diluted to 0.2 mM with DMSO as a working solution. A stop reagent was prepared containing 200 ng/mL midazolam and tolbutamide in acetonitrile. A volume of 300 μL of stop solution was added to each well of a 96-well deep-well plate placed on ice beforehand.
# (§2) For the stability studies, peptides and eucatropine were spiked into plasma respectively, mixed well, and then 100 μL of each mixture solution was transferred into the pre-cooled stop reagent as 0 time point sample. The remaining mixtures were incubated in a 37° C. water bath with shaking at 100 rpm (n=2). The final incubation concentration was 1 μM for eucatropine and 100 μg/mL for all test compounds.
# (§3) At desired time points, 100 μL of incubation mixture was transferred to the stop reagent to precipitate proteins. Samples were vortexed and centrifuged at RCF 5000×g for 10 minutes, and supernatant was transferred to a test plate. The samples were analyzed by LC-MS/MS.
# (§4) Slope was calculated by plotting the natural logarithm of the percentage of remaining amount of test compounds and time, and T1/2 was calculated in accordance with the following formula.
# For stability in rat plasma, the incubation time was 0, 15, 30, 60 and 120 min for Peptide 1 and eucatropine, and 0, 15, 30, 60, 120, and 240 min for Peptide 12, Peptide 16, Peptide 29 and Peptide 31.
# In another stability study in rat plasma, the incubation time was 0, 30, 60 120 and 240 min for Peptide 2, Peptide 52, Peptide 64 and eucatropine.
# [4] = Peptide stability in human plasma; assay type: in vitro ADME; conditions: 100 μg/mL, 37° C.; FIG. 4, 15
# Method: as §1, with “in” for “in rat,”
# as §2, with “[…]” for “1 μM”
# as §3, §4
# For stability in human plasma, the incubation time was 0, 30, 60 and 120 min for Peptide 1, Peptide 12, Peptide 16 and eucatropine.
# as §1, with “A stop reagent was prepared containing 200 ng/mL midazolam and tolbutamide in acetonitrile. A volume of 300 μL of stop solution was added to each well of a 96-well deep-well plate placed on ice beforehand.” left out
# [5] = Peptide stability in mouse plasma; assay type: in vitro ADME; conditions: 100 μg/mL, 37° C.; FIG. 3, 5, 14
# Method: as §1, with “in” for “in rat,”
# as §2, with “[…]” for “1 μM”
# as §3, §4
# For stability in mouse plasma, the incubation time was 0, 5, 15, 30 and 60 min for Peptide 1 and eucatropine; 0, 15, 30, 60, 120, 240 and 480 min for Peptide 12, Peptide 16 and Peptide 29.
# In another stability study in mouse plasma, the incubation time was 0, 30, 60 and 120 min for Peptide 2 and eucatropine; 0, 30, 60, 120, 240 and 960 min for Peptide 52 and Peptide 54.
# as §1, §2
# For stability in mouse plasma, the incubation time was 0, 15, 30, 60 and 120 min for Peptide 1 and eucatropine; 0, 15, 30, 60, 120, and 240 min for Peptide 31.
substance,measurement,setting,value
"Ac-IGLHDPSHGTLPAGS-NH2 [Peptide 29, Ac-IGLHDPSHGTLPAGS-NH2]",time stable in isotonic phosphate buffer (pH 7.4) at 4° C.,[1],more than 90 days
same,time stable in isotonic phosphate buffer (pH 7.4) at 25° C.,[1],60 days
same,AUC(0-t),[2]; read-out: AUC(0-t),14400 ± 1010 ng·h/mL
same,AUC(0-inf),[2]; read-out: AUC(0-∞),14400 ± 1000 ng·h/mL
same,Cmax,[2]; read-out: Cmax,16300 ± 2520 ng/mL
same,stability in rat plasma,[3],exhibited good stability in rat plasma and were more stable than INGAP-PP
same,stability in human plasma,[4],exhibited good stability in human plasma and were significantly more stable than INGAP-PP
same,stability in mouse plasma,[5],exhibited good stability in mouse plasma and were more stable than INGAP-PP
